Data on 39 compounds can be found in patent US9951066B2, “Compositions, uses and methods for making them” (Pimera, Inc., priority 2014, dated 2018).

The structures appear in SMILES notation.

The subject of the first test is A375 cell line. Nature of the test: Alamar Blue cell viability assay, A375. The conditions noted are these: Homo sapiens, A-375, 96 h, read-out: Pharmaceutical activity in A375 cell line IC50. In kind it is cell-based. The method, then:
Inhibitory activity on cell proliferation of representative compounds of the invention was determined using an Alamar Blue cell viability assay as described hereafter.
3000 cancer cells in 100 uL of cell culture media were plated in each well of a 96-well clear bottom, black wall cell culture-pretreated plate.
The next day compounds are serially diluted (3-fold in cell culture media) across a 96-well polypropylene mother plate from row A to row F, to yield 6 concentrations (10 uM, 3.3 uM, 1.1 uM, 370 nM, 124 nM and 41 nM) for each test compound. Rows G and H contain only DMSO.
Once titrations are made, the media in plates with cells were disposed and 100 μL of drug dilutions are transferred to plates with cells. After a ninety six-hour incubation at 37° C., 10 uL of resazurin solution from Alamar Blue Cell Viability kit (Invitrogen, Carlsbad, Calif.) was added to the media and cells were incubated at 37° C. for three more hours. At the end of this incubation the production of resofurin was measured using Spectrmax M2 microplate reader (Molecular Devices, Sunnyvale, Calif.)
A general note: Resazurin is reduced to fluorescent resorufin, in cell work by metabolically active cells.
Take `CC(C)NC(=O)c1cc2ccc(N3CCN(C)CC3)nc2n2c1nc1ccccc12` [Compound 5D]: the IC50 (as a rule, the concentration at which inhibition is half-maximal) lay within 5 to 10 µM.
Turning to `CC(C)NC(=O)c1cc2ccc(N3CCCNCC3)nc2n2c1nc1ccccc12` [Compound 9B, 2-[1,4]Diazepan-1-yl-1,7,11b-triaza-benzo[c]fluorene-6-carboxylic acid isopropylamide], the IC50 fell in the range of 1 to 5 µM.

The test is the same for the next values; noted with them: Homo sapiens, A-375; Table 4; cell proliferation inhibition, Alamar Blue, 96 h incubation; read-out: Pharmaceutical activity in A375 cell line IC50.
`CN1CCCN(c2ccc3cc(C#N)c4nc5ccccc5n4c3n2)CC1` [Compound 3C, 2-(4-Methyl-[1,4]diazepan-1-yl)-1,7,11b-triaza-benzo[c]fluorene-6-carbonitrile]: the IC50 was < 1 µM.
As to `N#Cc1cc2ccc(N3CCCNCC3)nc2n2c1nc1ccccc12` [Compound 3D, 2-[1,4]Diazepan-1-yl-1,7,11b-triaza-benzo[c]fluorene-6-carbonitrile], the IC50 is < 1 µM.
For `N#Cc1cc2ccc(NCCN3CCOCC3)nc2n2c1nc1ccccc12` [Compound 3E, 2-(2-Morpholin-4-yl-ethylamino)-1,7,11b-triaza-benzo[c]fluorene-6-carbonitrile], the IC50 lay within 1 to 5 µM.
On the same count and under the same terms, in the case of `CN(C)C1CCN(c2ccc3cc(C#N)c4nc5ccccc5n4c3n2)C1` (stereo not drawn) [Compound 3F, 2-(3-Dimethylamino-pyrrolidin-1-yl)-1,7,11b-triaza-benzo[c]fluorene-6-carbonitrile] it was < 1 µM.
In the case of `N#Cc1cc2ccc(NCCn3ccnc3)nc2n2c1nc1ccccc12` [Compound 3G, 2-(2-Imidazol-1-yl-ethylamino)-1,7,11b-triaza-benzo[c]fluorene-6-carbonitrile], the IC50 was in the range of 1 to 5 µM.
`CN1CCN(c2ccc3cc(C#N)c4nc5ccccc5n4c3n2)CC1` [Compound 3H, 2-(4-Methyl-piperazin-1-yl)-1,7,11b-triaza-benzo[c]fluorene-6-carbonitrile]: the IC50 is < 1 µM.
Regarding `COCCNc1ccc2cc(C#N)c3nc4ccccc4n3c2n1` [Compound 3I, 2-(2-Methoxy-ethylamino)-1,7,11b-triaza-benzo[c]fluorene-6-carbonitrile], the concentration for half-maximal inhibition (IC50) lay within 1 to 5 µM.
Take `CN1CCCN(c2ccc3cc(C(=O)Nc4nccs4)c4nc5ccccc5n4c3n2)CC1` [Compound 4A]: the IC50 was 5 to 10 µM.
On to `CN1CCCN(c2ccc3cc(C(=O)NC#N)c4nc5ccccc5n4c3n2)CC1` [Compound 4C], for which the IC50 is < 1 µM.
Regarding `CNNC(=O)c1cc2ccc(N3CCCN(C)CC3)nc2n2c1nc1ccccc12` [Compound 4D, 2-(4-Methyl-[1,4]diazepan-1-yl)-1,7,11b-triaza-benzo[c]fluorene-6-carboxylic acid N′-methyl-hydrazide], the IC50 is < 1 µM.
In the case of `[2H]C([2H])([2H])NC(=O)c1cc2ccc(N3CCCN(C)CC3)nc2n2c1nc1ccccc12` [Compound 4E, 2-(4-Methyl-[1,4]diazepan-1-yl)-1,7,11b-triaza-benzo[c]fluorene-6-carboxylic acid methyl-d3-amide], the half-inhibitory concentration (IC50) was in the range of 1 to 5 µM.
As for `CONC(=O)c1cc2ccc(N3CCCN(C)CC3)nc2n2c1nc1ccccc12` [Compound 4F, 2-(4-Methyl-[1,4]diazepan-1-yl)-1,7,11b-triaza-benzo[c]fluorene-6-carboxylic acid methoxy-amide], the IC50 is < 1 µM.
As for `CN1CCN(c2ccc3cc(C(=O)NN)c4nc5ccccc5n4c3n2)CC1` [Compound 5B], the IC50 lay within 5 to 10 µM.
Take `CNC(=O)c1cc2ccc(N3CCN(C)CC3)nc2n2c1nc1ccccc12` [Compound 5C]: the IC50 was 1 to 5 µM.
Same read-out and setting: as for `CN1CCN(c2ccc3cc(C(=O)NC4CC4)c4nc5ccccc5n4c3n2)CC1` [Compound 5E, 2-(4-Methyl-piperazin-1-yl)-1,7,11b-triaza-benzo[c]fluorene-6-carboxylic acid cyclopropylamide], the figure is 1 to 5 µM.
On the same count and under the same terms, as for `CNC(=O)c1cc2ccc(N3CCC[N+](C)(C)CC3)nc2n2c1nc1ccccc12` [Compound 6A, 1,1-Dimethyl-4-(6-methylcarbamoyl-1,7,11b-triaza-benzo[c]fluoren-2-yl)-[1,4]diazepan-1-ium; iodide], the figure is 5 to 10 µM; as for `O=C(O)c1cc2cc(F)cnc2n2c1nc1ccccc12` [Compound 7B, 3-Fluoro-1,7,11b-triaza-benzo[c]fluorene-6-carboxylic acid], > 10 µM; as for `CN1CCCN(C(=O)c2cc3cc(F)cnc3n3c2nc2ccccc23)CC1` [Compound 7C, (3-Fluoro-1,7,11b-triaza-benzo[c]fluoren-6-yl)-(4-methyl-[1,4]diazepan-1-yl)-methanone], > 10 µM.
Consider `O=C(c1cc2cc(F)cnc2n2c1nc1ccccc12)N1CCCNCC1` [Compound 7D, [1,4]Diazepan-1-yl-(3-fluoro-1,7,11b-triaza-benzo[c]fluoren-6-yl)-methanone], for which the IC50 is > 10 µM.
The same measure, in the same setting: as for `CN(C)CCNC(=O)c1cc2cc(F)cnc2n2c1nc1ccccc12` [Compound 7F, 3-Fluoro-1,7,11b-triaza-benzo[c]fluorene-6-carboxylic acid (2-dimethylamino-ethyl)-amide], the figure is 1 to 5 µM.
For `O=C(NCCN1CCOCC1)c1cc2cc(F)cnc2n2c1nc1ccccc12` [Compound 7G, 3-Fluoro-1,7,11b-triaza-benzo[c]fluorene-6-carboxylic acid (2-morpholin-4-yl-ethyl)-amide], the IC50 is > 10 µM.
For the compound `O=C(NCCN1CCCC1)c1cc2cc(F)cnc2n2c1nc1ccccc12` [Compound 7I, 3-Fluoro-1,7,11b-triaza-benzo[c]fluorene-6-carboxylic acid (2-pyrrolidin-1-yl-ethyl)-amide], the IC50 is 1 to 5 µM.
Consider `CNC(=O)c1cc2c(N3CCCN(C)CC3)ccnc2n2c1nc1ccccc12` [Compound 8B, 4-(4-Methyl-[1,4]diazepan-1-yl)-1,7,11b-triaza-benzo[c]fluorene-6-Carboxylic acid methylamide], for which the IC50 was < 1 µM.
For `CNC(=O)c1cc2c(N3C[C@@H](C)N[C@@H](C)C3)ccnc2n2c1nc1ccccc12` [Compound 8D], the IC50 is < 1 µM.
For `Cc1nnc(-c2cc3ccc(N4CCCN(C)CC4)nc3n3c2nc2ccccc23)o1` [Compound 10E, 2-(4-Methyl-[1,4]diazepan-1-yl)-6-(5-methyl-[1,3,4]oxadiazol-2-yl)-1,7,11b-triaza-benzo[c]fluorine], the IC50 is < 1 µM.
The same measure, in the same setting: in the case of `NNC(=O)c1cc2ccc(NCCN3CCOCC3)nc2n2c1nc1ccccc12` [Compound 11C, 2-(2-Morpholin-4-yl-ethylamino)-1,7,11b-triaza-benzo[c]fluorene-6-carboxylic acid hydrazide] it was 5 to 10 µM.
On to `CNC(=O)c1cc2ccc(NCCN3CCOCC3)nc2n2c1nc1ccccc12` [Compound 11D, 2-(2-Morpholin-4-yl-ethylamino)-1,7,11b-triaza-benzo[c]fluorene-6-carboxylic acid methylamide], for which the IC50 is 1 to 5 µM.
For the compound `CN(C)CCNc1ccc2cc(C(=O)NN)c3nc4ccccc4n3c2n1` [Compound 12B, 2-(2-Dimethylamino-ethylamino)-1,7,11b-triaza-benzo[c]fluorene-6-carboxylic acid hydrazide], the IC50 fell in the range of 1 to 5 µM.
On to `CNC(=O)c1cc2ccc(NCCN(C)C)nc2n2c1nc1ccccc12` [Compound 12C, 2-(2-Dimethylamino-ethylamino)-1,7,11b-triaza-benzo[c]fluorene-6-carboxylic acid methylamide], for which the IC50 is < 1 µM.
As for `CC(C)NC(=O)c1cc2cnccc2n2c1nc1ccccc12` [Compound 13C, 3,7,11b-Triaza-benzo[c]fluorene-6-carboxylic acid isopropylamide], the IC50 is 5 to 10 µM.
For `CN(C)CCNC(=O)c1cc2cnccc2n2c1nc1ccccc12` [Compound 13D, 3,7,11b-Triaza-benzo[c]fluorene-6-carboxylic acid (2-dimethylamino-ethyl)-amide], the IC50 is < 1 µM.
Same read-out and setting: in the case of `COCCCNC(=O)c1cc2cnccc2n2c1nc1ccccc12` [Compound 13E, 3,7,11b-Triaza-benzo[c]fluorene-6-carboxylic acid (3-methoxy-propyl)-amide] it was 5 to 10 µM.

Staying with this test, now noted: Homo sapiens, A-375; cell proliferation inhibition, Alamar Blue, 96 h incubation; read-out: Pharmaceutical activity IC50 A375.
Regarding `CC(C)NC(=O)c1cc2ccc(N3CCCN(C)CC3)nc2n2c1nc1ccccc12` [Compound 2A, 2-(4-methyl-[1,4]diazepan-1-yl)-1,7,11b-triazabenzo[c]fluorene-6-carboxylic acid isopropylamide], the IC50 is 5 to 10 µM.
For the compound `CC(NC(=O)c1cc2ccc(N3CCCN(C)CC3)nc2n2c1nc1ccccc12)C1CC1` (stereo not drawn) [Compound 2B, 2-(4-Methyl-[1,4]diazepan-1-yl)-1,7,11b-triazabenzo[c]fluorene-6-carboxylic acid (1-cyclopropylethyl)-amide], the IC50 was 5 to 10 µM.
Consider `CN1CCCN(c2ccc3cc(C(=O)NC4CC4)c4nc5ccccc5n4c3n2)CC1` [Compound 2C, 2-(4-methyl-[1,4]diazepan-1-yl)-1,7,11b-triazabenzo[c]fluorene-6-carboxylic acid cyclopropylamide], for which the IC50 lay within 1 to 5 µM.
As for `CN1CCCN(c2ccc3cc(C(=O)NC4CCOCC4)c4nc5ccccc5n4c3n2)CC1` [Compound 2D, 2-(4-methyl-[1,4]diazepan-1-yl)-1,7,11b-triazabenzo[c]fluorene-6-carboxylic acid (tetrahydropyran-4-yl)-amide], the IC50 lay in the range of 1 to 5 µM.
For the compound `CN1CCCN(c2ccc3cc(C(=O)NCC4(C)COC4)c4nc5ccccc5n4c3n2)CC1` [Compound 2F, 2-(4-Methyl-[1,4]diazepan-1-yl)-1,7,11b-triazabenzo[c]fluorene-6-carboxylic acid (3-methyloxetan-3-ylmethyl)-amide], the IC50 lay within 1 to 5 µM.
